ChEMBL document CHEMBL5465560, “Selectivity Literature for EUbOPEN Chemogenomic Library” (2024)

Legend:
[1] = biological target: T1, Discoidin domain-containing receptor 2 (Homo sapiens) (UniProt Q16832); assay: Selectivity interaction (KinomeScan (DiscoverX)) EUB0000666a DDR2; details: at 10 µM
T1 sequence (whole entry): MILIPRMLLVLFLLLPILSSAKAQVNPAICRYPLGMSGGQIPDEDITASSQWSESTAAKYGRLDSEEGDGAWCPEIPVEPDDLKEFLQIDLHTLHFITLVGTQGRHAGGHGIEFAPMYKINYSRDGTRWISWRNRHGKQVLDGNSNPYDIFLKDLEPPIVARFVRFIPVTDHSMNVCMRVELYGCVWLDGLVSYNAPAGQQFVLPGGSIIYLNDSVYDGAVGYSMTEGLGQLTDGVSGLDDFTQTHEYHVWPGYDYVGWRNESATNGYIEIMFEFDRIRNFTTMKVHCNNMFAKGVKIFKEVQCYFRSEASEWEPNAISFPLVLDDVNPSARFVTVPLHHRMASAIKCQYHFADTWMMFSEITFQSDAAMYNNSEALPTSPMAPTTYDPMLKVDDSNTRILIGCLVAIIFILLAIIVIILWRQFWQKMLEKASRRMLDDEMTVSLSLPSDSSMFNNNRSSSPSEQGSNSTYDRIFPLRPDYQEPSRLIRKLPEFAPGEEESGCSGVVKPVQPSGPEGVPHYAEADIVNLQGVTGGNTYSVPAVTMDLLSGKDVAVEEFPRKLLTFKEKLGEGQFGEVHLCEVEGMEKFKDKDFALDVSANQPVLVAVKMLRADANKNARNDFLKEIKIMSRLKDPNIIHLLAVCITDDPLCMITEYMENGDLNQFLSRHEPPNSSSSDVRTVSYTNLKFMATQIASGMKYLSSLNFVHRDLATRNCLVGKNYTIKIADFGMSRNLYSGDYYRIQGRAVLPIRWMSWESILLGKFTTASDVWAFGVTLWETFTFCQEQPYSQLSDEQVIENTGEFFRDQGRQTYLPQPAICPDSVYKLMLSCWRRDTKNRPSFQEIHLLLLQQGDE

[2] = biological target: T2, Protein kinase C iota type (Homo sapiens) (UniProt P41743); assay: Selectivity interaction (ActivX KiNativ screen (kinase selectivity in THP-1 cell lysates)) EUB0000639a PRKCI; assay type: subcellular; details: lysate, at 0.04 µM
T2 sequence (whole entry): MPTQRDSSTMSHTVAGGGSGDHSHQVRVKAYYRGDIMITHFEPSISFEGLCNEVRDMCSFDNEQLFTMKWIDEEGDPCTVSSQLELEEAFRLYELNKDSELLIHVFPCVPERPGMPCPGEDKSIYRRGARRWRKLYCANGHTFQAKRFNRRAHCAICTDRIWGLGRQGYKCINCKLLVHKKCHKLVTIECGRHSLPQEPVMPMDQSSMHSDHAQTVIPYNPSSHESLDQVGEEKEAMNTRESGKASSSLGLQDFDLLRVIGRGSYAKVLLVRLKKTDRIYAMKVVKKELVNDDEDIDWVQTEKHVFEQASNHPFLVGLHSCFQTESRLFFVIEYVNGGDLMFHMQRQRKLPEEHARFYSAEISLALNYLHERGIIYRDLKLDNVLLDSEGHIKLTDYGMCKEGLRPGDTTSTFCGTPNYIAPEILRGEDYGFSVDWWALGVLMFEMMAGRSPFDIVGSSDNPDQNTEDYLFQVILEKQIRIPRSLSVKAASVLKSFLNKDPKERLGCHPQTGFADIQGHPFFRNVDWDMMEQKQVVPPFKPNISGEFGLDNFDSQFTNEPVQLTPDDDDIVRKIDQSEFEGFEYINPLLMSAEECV

[3] = biological target: T3, Atypical kinase COQ8B, mitochondrial (Homo sapiens) (UniProt Q96D53); assay: Selectivity interaction (KinomeScan (DiscoverX)) EUB0000045b ADCK4
T3 sequence (whole entry): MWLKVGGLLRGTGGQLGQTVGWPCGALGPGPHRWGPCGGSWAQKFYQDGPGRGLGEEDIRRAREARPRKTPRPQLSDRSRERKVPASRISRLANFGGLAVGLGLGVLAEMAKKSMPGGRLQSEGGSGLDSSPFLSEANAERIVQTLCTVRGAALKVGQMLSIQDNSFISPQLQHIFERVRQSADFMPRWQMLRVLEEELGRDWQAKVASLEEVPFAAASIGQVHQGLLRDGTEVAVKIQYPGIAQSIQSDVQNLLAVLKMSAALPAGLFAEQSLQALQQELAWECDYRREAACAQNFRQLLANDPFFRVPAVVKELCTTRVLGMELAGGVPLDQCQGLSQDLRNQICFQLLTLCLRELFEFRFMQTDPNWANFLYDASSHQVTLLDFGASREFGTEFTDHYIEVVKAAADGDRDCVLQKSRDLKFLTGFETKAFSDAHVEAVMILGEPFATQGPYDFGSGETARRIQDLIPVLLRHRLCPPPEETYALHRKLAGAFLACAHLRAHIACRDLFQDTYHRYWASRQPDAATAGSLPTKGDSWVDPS

[4] = biological target: T4, Cytoplasmic tyrosine-protein kinase BMX (Homo sapiens) (UniProt P51813); assay: Selectivity interaction (KinomeScan (DiscoverX)) EUB0000655a BMX; details: at 10 µM
T4 sequence (whole entry): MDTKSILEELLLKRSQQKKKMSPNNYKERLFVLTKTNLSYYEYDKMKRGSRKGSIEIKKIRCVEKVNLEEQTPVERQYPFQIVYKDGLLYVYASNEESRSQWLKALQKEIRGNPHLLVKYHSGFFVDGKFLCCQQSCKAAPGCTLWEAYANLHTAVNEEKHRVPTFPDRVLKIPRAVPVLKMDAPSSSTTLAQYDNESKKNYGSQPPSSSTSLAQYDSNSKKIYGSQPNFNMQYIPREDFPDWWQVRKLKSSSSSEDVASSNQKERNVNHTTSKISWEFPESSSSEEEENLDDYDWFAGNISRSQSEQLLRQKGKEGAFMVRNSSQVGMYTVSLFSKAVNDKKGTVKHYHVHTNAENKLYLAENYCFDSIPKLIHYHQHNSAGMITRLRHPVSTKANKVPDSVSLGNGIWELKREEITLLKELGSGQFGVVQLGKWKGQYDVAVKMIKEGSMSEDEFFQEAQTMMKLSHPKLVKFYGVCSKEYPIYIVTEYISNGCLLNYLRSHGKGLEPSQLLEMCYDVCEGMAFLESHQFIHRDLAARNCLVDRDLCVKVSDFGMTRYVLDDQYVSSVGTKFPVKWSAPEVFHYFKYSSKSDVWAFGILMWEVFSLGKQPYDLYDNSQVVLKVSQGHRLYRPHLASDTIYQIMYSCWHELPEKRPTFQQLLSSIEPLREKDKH

[5] = biological target: Cyclin-dependent kinase 5/CDK5 activator 1 (Homo sapiens) (UniProt Q00535+Q15078); assay: Selectivity interaction (ProQinase) EUB0000171b CDK5; assay type: protein-complex assay; details: at 1 µM
Sequence of Cyclin-dependent kinase 5/CDK5 activator 1 (Homo sapiens) (Q00535 whole entry): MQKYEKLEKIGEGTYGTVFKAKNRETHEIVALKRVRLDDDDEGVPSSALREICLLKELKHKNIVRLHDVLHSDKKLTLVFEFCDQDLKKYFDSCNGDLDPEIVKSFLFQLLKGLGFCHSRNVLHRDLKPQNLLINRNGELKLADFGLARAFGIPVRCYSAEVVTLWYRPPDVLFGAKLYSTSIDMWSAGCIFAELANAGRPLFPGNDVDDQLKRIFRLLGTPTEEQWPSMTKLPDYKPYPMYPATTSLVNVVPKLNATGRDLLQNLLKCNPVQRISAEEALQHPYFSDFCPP
Sequence of Cyclin-dependent kinase 5/CDK5 activator 1 (Homo sapiens) (Q15078 99-307 partner limits assumed): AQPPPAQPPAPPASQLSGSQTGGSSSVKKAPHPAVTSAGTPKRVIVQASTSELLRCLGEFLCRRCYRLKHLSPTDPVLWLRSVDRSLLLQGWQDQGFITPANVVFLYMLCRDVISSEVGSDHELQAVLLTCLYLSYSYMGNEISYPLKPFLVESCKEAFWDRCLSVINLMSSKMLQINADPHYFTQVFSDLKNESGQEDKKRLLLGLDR

In the case of `O=C(NOC[C@H](O)CO)c1ccc(F)c(F)c1Nc1ccc(I)cc1F`, the % of control [1] is reported as 100%.

With `CC[C@@H]1[C@H](F)C(=O)N[C@@H]1COc1nccc2cc(C(N)=O)c(OC)cc12` [ZIMLOVISERTIB] the % of inhibition [2] was -0.9%.

`C=CC(=O)Nc1cc(-n2c(=O)ccc3cnc4ccc(-c5ccc(NS(C)(=O)=O)cc5)cc4c32)ccc1C` gave a % of control ([3]; at 1 µM) of 100% and a % of control ([3]; at 10 µM) of 64%.

`CN(C)CCOc1ccc(-c2nc(-c3ccncc3)c(-c3ccc4c(c3)CC/C4=N\O)[nH]2)cc1` showed a % of control [4] of 81%.

`C=CC(=O)Nc1cccc(C(=O)Nc2ccc(Nc3cc(-c4[nH]c(SC)nc4C)ccn3)cc2)c1` was tested, and the % of control [5] was 74%.
